In patent US20040209283A1, “Continuous-read assay for the detection of de novo HCV RNA polymerase activity” (Pfizer Inc., priority 2002, published 2004):

Legend:
[1] = test system: double-stranded NR-2; assay: Binding of PicoGreen to double-stranded NR-2 at varying buffer component concentrations (fluorescence intensity); details: for effect on the binding of PicoGreen to the double-stranded template: at the concentrations tested; for Fluorescence Intensity (% of control ± SD; n = 2): 7 nM double-stranded NR2, 600 nM PicoGreen
Protocol: To assess the effect of buffer component concentration on the binding of PicoGreen® to double-stranded NR-2, mixtures containing 7 nM double-stranded NR2, 600 nM PicoGreen®, and varying concentrations of the buffer components were prepared, and the fluorescence intensities of these mixtures were measured. These mixtures were prepared using between 4 fold less to 1.25 to 2 fold more of the individual buffer components (relative to the amount of the components used in the reactions described in Example 1).

[2] = test system: C delta 21 NS5B; assay: Continuous-read fluorescence assay of de novo NS5B polymerase activity; assay type: biochemical, Hepatitis C virus (HCV)
Protocol: Reactions were prepared by first placing 0.5 μL of 100% DMSO into the wells of an assay plate (Corning, black, 384-well, NBS #3654). In reactions in which modulators or inhibitors of RNA polymerase activity are to be identified, a test compound may be added to the DMSO. A solution (Solution-1) containing 162 nM of C delta 21 NS5B and 28 nM NR-2 in an assay buffer comprising 20 mM Tris-HCl, pH 7.5; 100 mM ammonium acetate; 2 mM MnCl2; 10 mM DTT; and 2 mM CHAPS, was then prepared and incubated at ambient temperature for a minimum of 15 minutes. During this incubation, a second solution (Solution-2) was prepared by mixing 76 nM of PicoGreen® with 2.7 μM UTP, 2.7 μM CTP, 2.7 μM ATP, 67 μM GTP in the assay buffer that is described above. Next, 10 μL of Solution-1 was added to the wells of the assay plate containing DMSO and the plate was incubated for 15 minutes at ambient temperature. […]
The reactions were monitored on a LJL Analyst (Molecular Devices Corp.; Sunnyvale, Calif.), which excited the PicoGreen® at 485 nm and detected PicoGreen® fluorescence at 530 nm.
The effect of increasing concentrations of PicoGreen® on reaction kinetics was also assessed. […] The calculated initial velocity (v0=span x kexp) increased as the concentration of PicoGreen® was increased from 50 to 600 nM, and appeared to plateau at between 600 and 800 nM PicoGreen® (FIG. 5C).

[3] = component final concentration 0.5 mM
[4] = component final concentration 1 mM
[5] = component final concentration 2 mM
[6] = component final concentration 4 mM

C[C@H](CCC(=O)NCCC[N+](C)(C)CCCS(=O)(=O)[O-])[C@H]1CC[C@H]2[C@@H]3[C@H](O)C[C@@H]4C[C@H](O)CC[C@]4(C)[C@H]3C[C@H](O)[C@]12C [CHAPS]
effect on the binding of PicoGreen to the double-stranded template [1]: Neither DTT nor chaps affected the binding | Fluorescence Intensity (% of control ± SD; n = 2) [1, 3]: 98 ± 3 % of control | Fluorescence Intensity (% of control ± SD; n = 2) [1, 4]: 96 ± 1 % of control | Fluorescence Intensity (% of control ± SD; n = 2) [1, 5]: 96 ± 1 % of control | Fluorescence Intensity (% of control ± SD; n = 2) [1, 6]: 102 ± 1 % of control

CC(=O)O.N [Ammonium Acetate]
effect on NS5B activity ([2]; 100 mM ammonium acetate): appeared to enhance NS5B activity | inhibition of PicoGreen binding ([1]; at 100 mM): 5% | inhibition of PicoGreen binding ([1]; at 125 mM): 10% | Fluorescence Intensity (% of control ± SD; n = 2) ([1]; component final concentration 12.5 mM): 105 ± 1 % of control | Fluorescence Intensity (% of control ± SD; n = 2) ([1]; component final concentration 25 mM): 103 ± 1 % of control | Fluorescence Intensity (% of control ± SD; n = 2) ([1]; component final concentration 50 mM): 109 ± 1 % of control | Fluorescence Intensity (% of control ± SD; n = 2) ([1]; component final concentration 100 mM): 95 ± 1 % of control | Fluorescence Intensity (% of control ± SD; n = 2) ([1]; component final concentration 125 mM): 89 ± 2 % of control

O[C@@H](CS)[C@@H](O)CS [DTT]
effect on the binding of PicoGreen to the double-stranded template [1]: Neither DTT nor chaps affected the binding | Fluorescence Intensity (% of control ± SD; n = 2) ([1]; component final concentration 2.5 mM): 98 ± 5 % of control | Fluorescence Intensity (% of control ± SD; n = 2) ([1]; component final concentration 5 mM): 100 ± 2 % of control | Fluorescence Intensity (% of control ± SD; n = 2) ([1]; component final concentration 10 mM): 100 ± 1 % of control | Fluorescence Intensity (% of control ± SD; n = 2) ([1]; component final concentration 20 mM): 96 ± 3 % of control

CN(C)CCCN(CCCN(C)C)c1cc(C=C2Sc3ccccc3N2C)c2ccccc2[n+]1-c1ccccc1 [PicoGreen®, reference compound]
change of experimental rate constant (kexp) of the first-order reaction ([2]; at 600 nM PicoGreen): slightly less than a two-fold decrease

[Cl][Mn][Cl] [MnCl2]
inhibition of the binding of PicoGreen to the template ([1]; at 2 mM): approximately 35% | inhibition of the binding of PicoGreen to the template ([1]; at 4 mM): ~55% | Fluorescence Intensity (% of control ± SD; n = 2) [1, 3]: 96 ± 2 % of control | Fluorescence Intensity (% of control ± SD; n = 2) [1, 4]: 82 ± 1 % of control | Fluorescence Intensity (% of control ± SD; n = 2) [1, 5]: 65 ± 1 % of control | Fluorescence Intensity (% of control ± SD; n = 2) [1, 6]: 45 ± 2 % of control
